Test results as given in PMC3960879 (Biology, 2013).
Where two headings read alike, the source gives them in different places.

Assays:
[1] = biological target: F17fG receptor-binding domain (Escherichia coli, UniProt Q9RH91); assay: Surface plasmon resonance steady-state affinity, immobilized F17fG; details: SPR steady state, 25 °C, pH 7.4; read-out: Affinity range (Kd class), F17fG
Experimental: (§1) The affinity profiles were determined by surface plasmon resonance (SPR) measurements using a BiaCore 3000 instrument (GE Healthcare). […] The proteins were covalently immobilized on CM5 sensor chips (Biacore AB) to an average density of 2000 RU (resonance units in pg/mm^2). On each chip, one flow cell was coated with a camel single domain antibody for use as a reference cell. The other three flow cells (Fc2, Fc3 and Fc4) were coated with three different F17G variants. Carbohydrate concentrations ranging from 10 µM to 10 mM in running buffer (20 mM Hepes, pH 7.4; 150 mM NaCl; 3 mM EDTA and 0.005% surfactant Tween 20) were incubated for one minute on all flow cells simultaneously, at 25 °C and at a flow rate of 30 µL/min. Complete dissociation of the carbohydrates in running buffer was verified before starting a new binding cycle. All binding cycles were performed in duplicate, including a zero concentration cycle (injection of pure running buffer). All analysis was done using the BIAeval software. In each case the equilibrium resonance signal from the reference cell was subtracted from that of the various F17G flow cells (2-1, 3-1, 4-1). A Langmuir binding isotherm with a 1:1 stoichiometry was fitted to the data, from which the equilibrium dissociation constants, Kd, were obtained.

[2] = biological target: F17eG receptor-binding domain; assay: Surface plasmon resonance steady-state affinity, immobilized F17eG; parameters: species or system Escherichia coli; details: SPR steady state, 25 °C, pH 7.4
Experimental: as §1

[3] = biological target: T1, F17aG receptor-binding domain (Escherichia coli, UniProt Q99003); assay: biochemical
T1 construct: variants of the lectin domains with oligolysine (4Lys) tails have been constructed; made in house; host or cells: E. coli (periplasm)
T1 sequence (Q99003 23-199): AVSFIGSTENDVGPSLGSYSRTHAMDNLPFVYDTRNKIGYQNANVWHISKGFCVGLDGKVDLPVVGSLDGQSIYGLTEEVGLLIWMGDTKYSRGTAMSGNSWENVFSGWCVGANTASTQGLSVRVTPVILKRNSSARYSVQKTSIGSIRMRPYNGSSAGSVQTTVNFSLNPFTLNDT
Experimental: as §1

FedF lectin domain = assay: CFG glycan array version 2 (experiment 399), FedF lectin domain; type: binding, Escherichia coli; details: CFG glycan array experiment 399; FedF 100 μg/mL
Description: The most highly, triple, sulfated disaccharide (1) is here the best binder: Galβ1,4GlcNAc sulfated at positions 3', 6' and 6 (Table 3). Sulfation of the O6 hydroxyl (2) of GlcNAc is important, as well as N-acetylation on its position 2 (3) because the lactose form has lower affinity. Monosulfation on the non-reducing end galactose (one ion at either 3', 6' or 4') and lack of sulfation at the reducing end GlcNAc each decrease the fluorescence signal dramatically.

[4] = biological target: T2, F17bG receptor-binding domain (Escherichia coli, UniProt Q47200); details: SPR steady state, 25 °C, pH 7.4; read-out: Affinity range (Kd class), F17bG
T2 construct: variants of the lectin domains with oligolysine (4Lys) tails have been constructed; made in house; host or cells: E. coli (periplasm)
T2 sequence (Q47200 23-199): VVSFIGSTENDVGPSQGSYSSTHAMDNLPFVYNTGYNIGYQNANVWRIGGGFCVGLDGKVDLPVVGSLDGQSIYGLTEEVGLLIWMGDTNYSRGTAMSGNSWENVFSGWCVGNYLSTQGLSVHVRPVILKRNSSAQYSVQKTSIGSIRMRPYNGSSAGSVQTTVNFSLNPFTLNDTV
Experimental: as §1

F17aG lectin domain = F17aG lectin domain (Escherichia coli, UniProt Q99003); details: array version 4.1, exp. 2053
F17aG lectin domain, sequence (Q99003 23-199): as the sequence (Q99003 23-199) above
Description: With mammalian printed array version 4.1, a new evaluation parameter was taken into account, namely % CV = 100 × Std. Dev/Mean. The highest and the lowest point from each set of six replicates have been removed so the average is of 4 values rather than 6. This eliminates some of the false hits that contain a single very high or low point. Thus, points with a high % CV should be considered suspect. […] This comparison provides information on binding specificity. The CFG glycan array data are available containing searchable results by means of flex-based data browser tools.
(§2) A microarray presenting 264 different glycans (mammalian printed array version 2 from the CFG, experiment 400) was used to evaluate whether the F17G variant lectin domains differ in the range of glycan receptors that they can recognize, thereby establishing strain-dependent tropism. […] The glycan array screening has been repeated for F17aG only on printed array version 4.1 (experiment 2053) (Figure 1).

F17bG lectin domain = F17bG lectin domain (Escherichia coli, UniProt Q47200); details: array version 2, exp. 400
F17bG lectin domain, sequence (Q47200 23-199): as the sequence (Q47200 23-199) above
Experimental: A microarray presenting 264 different glycans (mammalian printed array version 2) was used to evaluate if the F17G variant lectin domains differ in the range of glycan receptors that they recognize, thereby establishing tropism. The microarray was set up within the Consortium for Functional Glycomics (CFG) ([20], and supplemental data). Binding of F17G (200 µg/mL) was detected using anti-F17G polyclonal rabbit IgG (10 µg/mL), followed by fluorescently labelled goat anti-rabbit polyclonal antibodies (IgG-488, 5 µg/mL).
as §2
Printed array version 2 at the Consortium for Functional Glycomics was used for glycan array screening of the variant F17G receptor binding domains. Slides were printed, with six replicates for each glycan, using glycan spotting concentrations of 100 μM, at the Consortium Carbohydrate Synthesis/Protein Expression Core D located at the Scripps Research Institute onto Schott Nexterion H slides (Schott Cat. No. 1070936B). Slide conditioning: preprinted slides were soaked in deionized water for 5 minutes at room temperature and dried under a stream of nitrogen. TSM buffer (20 mM Tris-HCl, pH 7.4, or MOPS 20 mM; 150 mM NaCl; 2 mM CaCl2, 2 mM MgCl2) was used as wash buffer (TSM buffer + 0.05% Tween 20) or binding buffer (TSM buffer + 0.05% Tween 20 + 1% BSA). (1) F17G was diluted to 200 μg/mL (Figure 1) in TSM binding buffer. (2) 50 μL of F17G was applied to the printed surface and coverslipped. (3) The slide was incubated, protected from light, in a humidified chamber for 1 hour at RT. (4) The slide was washed once in TSM wash buffer. 50 μL of the anti-F17G (10 μg/mL) polyclonal rabbit IgG were applied, coverslipped and incubated for 1 h at RT. (5) The slide was washed once in TSM wash buffer. Fifty μL of fluorescently labelled secondary goat anti-rabbit polyclonal antibodies (IgG-488, 5 µg/mL) were applied, coverslipped and incubated for 1 h at RT. (6) Slide was removed, followed by the coverslip, and washed for 10 s each in TSM wash buffer, TSM wash buffer lacking Tween 20, and deionized water. The slide was dried under a stream of nitrogen. (7) The binding image was read in a Perkin Elmer Microscanarray XL4000 scanner and tiff file of image stored. (8) Image analysis was performed using Imagene (V.6) image analysis software. (9) Raw data results files were generated in Excel format and uploaded to the Consortium database as .dat files. (10) Imagene data was uploaded to the database as .txt files.

FimH = test system: FimH; parameters: method as in PMID 18446213; details: cited from earlier work
[5] = read-out: Affinity range (Kd class), F17eG
[6] = SPR steady state, 25 °C, pH 7.4, read-out: Affinity range (Kd class), F17aG
[7] = good fit for at least three related experiments, read-out: dissociation constant Kd, F17eG
[8] = SPR steady state, 25 °C, pH 7.4, good fit for at least three related experiments, read-out: dissociation constant Kd, F17aG

F17fG receptor-binding domain, sequence (Q9RH91 23-198): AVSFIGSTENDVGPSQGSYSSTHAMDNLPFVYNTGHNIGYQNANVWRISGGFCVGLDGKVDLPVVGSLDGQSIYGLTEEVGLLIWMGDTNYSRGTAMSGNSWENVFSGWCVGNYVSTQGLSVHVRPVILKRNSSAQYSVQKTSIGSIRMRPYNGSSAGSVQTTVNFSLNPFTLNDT

Molecule	Kd [1]	Kd [3, 6]	RFU (averaged Relative Fluorescence Units for the six replicates), FedF lectin domain (FedF lectin domain)	Kd [4]	also measured
CC(=O)N[C@@H]1[C@@H](O)[C@H](O)[C@@H](COS(=O)(=O)O)O[C@H]1O [GlcNAc6SO3^−]	> 100 mM	10 to 100 mM	–	–	Kd [2, 5]: 1 to 10 mM
O=S(=O)(O)OC[C@H]1O[C@@H](O[C@H]2[C@H](O)[C@@H](O)C(O)O[C@@H]2COS(=O)(=O)O)[C@H](O)[C@@H](O)[C@H]1O (some centres unmarked) [[6OSO3]Galβ1,4[6OSO3]Glc]	–	–	5,405 RFU	–	–
CC(=O)N[C@H]1C(O)O[C@H](COS(=O)(=O)O)[C@@H](O[C@@H]2O[C@H](COS(=O)(=O)O)[C@H](O)[C@H](OS(=O)(=O)O)[C@H]2O)[C@@H]1O (some centres unmarked) [[3OSO3][6OSO3]Galβ1,4[6OSO3]GlcNAc]	–	–	10,388 RFU	–	–
Galβ1,6GlcNAc	10 to 100 mM	–	–	–	Kd [2, 5]: 1 to 10 mM
CO[C@@H]1O[C@H](CO)[C@H](O)[C@H](O[C@@H]2O[C@H](CO)[C@@H](O)[C@H](O)[C@H]2NC(C)=O)[C@H]1O [GlcNAcβ1,3Gal, GlcNAc(β1-3)Galβ1OMe]	0.1 to 1 mM	0.1 to 1 mM	–	1 to 10 mM	Kd [2, 7]: 0.28 mM; Kd ([3]; SPR measurements, text says F17G without variant, read-out: Kd of F17G as stated in the discussion): 0.66 mM; Kd [3, 8]: 0.66 mM
CC(=O)N[C@H]1C(O)O[C@H](CO)[C@@H](O[C@@H]2O[C@H](CO)[C@@H](O)[C@H](O)[C@H]2N)[C@@H]1O[C@H](C)C(=O)O (stereo partly drawn) [GlcNH2-MurNAc, glucosamine β1,4 N-actetylmuramic acid]	> 100 mM	10 to 100 mM	–	10 to 100 mM	–
CC(=O)N[C@@H]1C(O)O[C@H](CO)[C@@H](O)[C@@H]1O (some centres unmarked) [N-acetylmannosamine]	1 to 10 mM	1 to 10 mM	–	10 to 100 mM	–
CC(=O)N[C@H]1[C@H](Oc2ccc([N+](=O)[O-])cc2)O[C@H](CO)[C@@H](O)[C@@H]1O [pNP-GlcNAc, paranitrophenyl β-GlcNAc]	1 to 10 mM	0.1 to 1 mM	–	10 to 100 mM	–
CC(=O)N[C@H]1C(O)O[C@H](CO)[C@@H](O)[C@@H]1OS(=O)(=O)O (some centres unmarked) [GlcNAc3SO3^−]	> 100 mM	1 to 10 mM	–	1 to 10 mM	–
HOOC(CH3)CH3-3-O-GlcNAcβ1,4GlcNAcβ-Sp10	–	–	–	–	Rank among binders on CFG array, F17aG (F17aG lectin domain): highest binding
CC(=O)NC1C(O)OC(COS(=O)(=O)O)C(OC2OC(CO)C(O)C(OS(=O)(=O)O)C2O)C1O (centres unmarked) [[3OSO3]Galβ1,4[6OSO3]GlcNAc]	–	–	6,806 RFU	–	Rank among binders on CFG array, F17aG (F17aG lectin domain): tenth best binder; Rank among binders on CFG array, F17bG (variant b) (F17bG lectin domain): 28th best binder
O=S(=O)(O)OCC1OC(O)C(O)C(O)C1OC1OC(CO)C(O)C(OS(=O)(=O)O)C1O (centres unmarked) [[3OSO3]Galβ1,4[6OSO3]Glc]	–	–	4,073 RFU	–	–
CC(=O)NC1C(O)OC(CO)C(OC2OC(COS(=O)(=O)O)C(OS(=O)(=O)O)C(O)C2O)C1O (centres unmarked) [[4OSO3][6OSO3]Galβ1,4GlcNAc]	–	–	4,568 RFU	–	–
CC(=O)N[C@H]1[C@H](O[C@H]2[C@H](O)[C@@H](NC(C)=O)C(O)O[C@@H]2CO)O[C@H](CO)[C@@H](O[C@@H]2O[C@H](CO[C@H]3O[C@H](CO)[C@@H](O)[C@H](O)[C@@H]3O)[C@@H](O)[C@H](O[C@H]3O[C@H](CO)[C@@H](O)[C@H](O)[C@@H]3O)[C@@H]2O)[C@@H]1O (some centres unmarked) [oligomannose-3]	–	–	–	–	increased binding compared to α-D-mannose (FimH): 100 fold
CC(=O)N[C@H]1C(O)O[C@H](COP(=O)(O)O)[C@@H](O)[C@@H]1O (some centres unmarked) [GlcNAc6PO3^2−]	> 100 mM	> 100 mM	–	10 to 100 mM	–
[3OSO3][6OSO3]Galβ1,4GlcNAc	–	–	4,733 RFU	–	–
CO[C@@H]1O[C@H](CO[C@@H]2O[C@H](CO)[C@@H](O)[C@H](O)[C@H]2NC(C)=O)[C@H](O)[C@H](O)[C@H]1O [GlcNAcβ1,6Gal, GlcNAc(β1-6)Galβ1OMe]	–	1 to 10 mM	–	–	Kd [2, 7]: 3.8 mM; Kd [2, 5]: 1 to 10 mM; Kd [3, 8]: 2.8 mM
CC(=O)N[C@H]1[C@H](O[C@H]2[C@H](O)[C@@H](NC(C)=O)C(O)O[C@@H]2CO)O[C@H](CO)[C@@H](O)[C@@H]1O (some centres unmarked) [GlcNAcβ1,4GlcNAc]	1 to 10 mM	1 to 10 mM	–	1 to 10 mM	Kd [3, 8]: 3.3 mM
